In ChEMBL document CHEMBL3507680, “University of Dundee, Gates Library screen for HepG2 cell viability” one finds cytotoxicity data, which are given here for 99 compounds.

This series is described as follows: Human HepG2 cell viability assay in 384 well format. Also on record: dose 125 nL, time 70.5 hour; cytotoxicity at 70.5 h: concentration not given beside the values. The following applies: HepG2 cells, read-out: Inhibition. It counts as toxicity, cell-based.

Consider `FC(F)(F)COc1ccc(CSCc2ccon2)cn1`, for which the cytotoxicity at 70.5 h is -8.78%.

As to `CCN(C(=O)Nc1nccs1)C(C)c1cccc(O)c1` (centres undefined), the cytotoxicity at 70.5 h was -9.8%. As for `Cn1cc(CNCCNc2ncc(Cl)cc2Cl)cn1`, the figure is -4.79%; as for `COc1c(C)cnc(CN2CCCC2c2noc(C3CC3)n2)c1C` (centres undefined), 1.14%; as for `COC(=O)c1ccc(Cn2cnc(C#N)n2)cc1`, -12%.

On to `NCc1cccc(NC(=O)CCN2CCOCC2)c1`, for which the cytotoxicity at 70.5 h was -9.57%.

`CSCCC(NC(=O)c1ccco1)C(=O)N(C)Cc1ccsc1` (centres undefined): the cytotoxicity at 70.5 h was -4.71%. As for `COc1ccc(CCN(C)C(=O)c2cc(C(C)=O)c[nH]2)cc1OC`, the figure is -11.9%. In the case of `O=C(CCN1CCOCC1)Nc1cccc(CNCc2ccsc2)c1`, the cytotoxicity at 70.5 h amounted to 14.1%.

As for `Cc1n[nH]c(C)c1NC(=O)NCc1cc[nH]n1`, the cytotoxicity at 70.5 h was -12.5%.

For `COc1ccc(CCCN(C)C(=O)c2cc(Cl)c[nH]2)cc1OC`, the cytotoxicity at 70.5 h is -10.5%.

In the case of `CS(=O)(=O)NCC1CCCN(Cc2ccccc2F)C1` (centres undefined), the cytotoxicity at 70.5 h was -7.12%. As to `O=C(NCc1ccco1)N1CCOC(c2ccccc2Cl)C1` (centres undefined), the cytotoxicity at 70.5 h is -15.6%. For `O=C(NCCc1ccccn1)N1CCOC(c2ccccc2Cl)C1` (centres undefined), the cytotoxicity at 70.5 h is -5.38%.

Regarding `CSc1ccc(C)c(C(=O)Nc2c(C(N)=O)n[nH]c2C)c1`, the cytotoxicity at 70.5 h was -5.86%. The same measure for `COc1cc(F)cc2sc(NC(=O)COCC3CCCO3)nc12` (centres undefined): 13.2%; for `N#Cc1cccnc1NCCNC(=O)N1CCCSCC1`: -13%.

Turning to `CCc1ccc(S(=O)(=O)Nc2cn(C)cc(Br)c2=O)cc1`, the cytotoxicity at 70.5 h amounted to 7.59%. The same measure for `CN(C)C(=O)N1CCN(Cc2nnc(C(C)(C)C)o2)CC1`: -4.6%; for `CCc1nc(CN(C)CC2CCN(CC(C)O)CC2)no1` (centres undefined): -4.55%. As to `Cc1nnc(C(C)NCC2(c3ccc(Cl)cc3)CCCC2)o1` (centres undefined), the cytotoxicity at 70.5 h was -7.22%.

In the case of `COc1ccc(C2(CNC(C)c3nnc(C)o3)CCCCC2)cc1` (centres undefined), the cytotoxicity at 70.5 h was -8.26%. As for `Cc1ccc(CN(C)C(=O)CN2CCCC2Cn2cccn2)o1` (centres undefined), the figure is -9.22%. As for `Cc1cnn(CC2CCCN2CC(=O)N(C)CCC#N)c1` (centres undefined), the figure is -7.49%; as for `CN(CC1CCCCO1)C(=O)c1ccnc(OC2CCC2)c1` (centres undefined), -5.26%; as for `CCc1nnc2n1CCN(Cc1csc(-c3cnn(C)c3)n1)C2`, 6.48%. As for `Cc1cc(NC(=O)CCc2ccsc2)n(C)n1`, the figure is -9.51%.

As to `O=S1(=O)CCCN1Cc1coc(-c2cccs2)n1`, the cytotoxicity at 70.5 h was -10.6%. As for `CC(C)(C)NC(=O)CNC(=O)CCc1ccccc1Br`, the figure is -8.13%; as for `CCCNC(=O)C(C)NC(=O)CCc1ccccc1Br` (centres undefined), -6.3%; as for `CC1CCN(CCNC(=O)C2CCN(S(N)(=O)=O)CC2)CC1`, -3.07%. As for `CN(C)CCN(Cc1ccc(Cl)cc1)C(=O)c1cc[nH]n1`, the figure is -3.35%; as for `NC(=O)CN1CCC(NC(=O)c2ccn(-c3cccc(F)c3)n2)CC1`, -3.27%; as for `Brc1cc2c(cc1CN1CCC(N3CCCCC3)CC1)OCCO2`, -2.82%.

With `CC(NC(=O)N(C)Cc1ccncc1)c1nncn1C` (centres undefined), the cytotoxicity at 70.5 h is -4.45%. As for `COc1cc(C)nc(N2CCN(Cc3nccn3C)CC2)n1`, the figure is 0.0501%. As for `Cc1cc(NC(=O)CN2CCc3nn(C)c(=O)cc3C2)on1`, the figure is 1.43%; as for `CSCCCNC(=O)Nc1cccc(-c2nccn2C)c1`, 3.57%; as for `Cn1ccnc1-c1cccc(NC(=O)NCCCO)c1`, 1.83%. For `N#Cc1cccc(SCCS(N)(=O)=O)c1`, the cytotoxicity at 70.5 h is -6.9%. The same measure for `Cc1nc(C2CCCN(C(=O)c3scnc3C)C2)no1` (centres undefined): -7.6%; for `Cc1nc(C2CCCN(C(=O)c3sccc3C3CC3)C2)no1` (centres undefined): -8.62%; for `O=C(c1cc(Cl)c2c(c1)OCO2)N1CCN(c2ccccn2)CC1`: -2.19%. As for `CC(NC(=O)C1=NN(C)C(=O)CC1)c1ccc(F)cc1F` (centres undefined), the figure is 20%; as for `CC(OCC(F)(F)F)C(=O)N1CCN(S(C)(=O)=O)CC1` (centres undefined), -1.69%; as for `O=C(NCCCn1cccn1)C1(c2ccc(F)cc2)CC1`, -2.75%.

On to `Cc1cccc(C2(C(=O)NCCCn3cccn3)CC2)c1`, for which the cytotoxicity at 70.5 h is -5.49%. The same measure for `Cc1ccc(C(=O)NC(CN2CCCC2=O)c2ccccc2)c(=O)[nH]1` (centres undefined): 17.4%; for `Cc1nc(C(C)(C)NC(=O)Nc2cccc(C#N)c2)no1`: -2.69%; for `OCCOc1nc(-c2ccccc2Cl)no1`: -1.34%. The same measure for `O=C1OCCN1CCOc1nc(-c2ccccc2Cl)no1`: -4.69%; for `CN(CC(F)(F)F)C(=O)C1CSCN1C(=O)OC(C)(C)C` (centres undefined): 4.04%. Take `CCCc1cc(NC2CCc3ncnn3C2)n2ncnc2n1` (centres undefined): the cytotoxicity at 70.5 h came out at 0.783%. The same measure for `Cc1nc2n(n1)CC(Nc1cc(C(F)(F)F)nc3ncnn13)CC2` (centres undefined): -0.866%; for `CCc1ncc2c(n1)CN(Cc1nc(C)c(C)o1)CC2`: 1.3%; for `Cc1c(Br)cccc1C(=O)NC(C)CN1CCCC1=O` (centres undefined): 1.84%. Take `CCn1nc2c(cc1=O)CN(Cc1nc3ccccc3c(=O)[nH]1)CC2`: the cytotoxicity at 70.5 h was determined as 0.253%. As for `CCc1nc2n(n1)CC(Nc1cc(C)nc3ncnn13)CC2` (centres undefined), the figure is -5.27%; as for `O=C(NS(=O)(=O)c1ccccc1Cl)c1cccc2c1OCCO2`, -3.53%. For the compound `O=C(NS(=O)(=O)c1cc(Cl)sc1Cl)c1cccc2c1OCCO2`, the cytotoxicity at 70.5 h stood at 1.61%. As to `CC(C)NC(=O)N1CCC(n2ccc(C(F)(F)F)n2)CC1`, the cytotoxicity at 70.5 h came out at 1.15%. Take `CN(CCC(F)(F)F)C(=O)C1CCCN1C(=O)OC(C)(C)C` (centres undefined): the cytotoxicity at 70.5 h came to 0.473%. The same measure for `CCc1n[nH]c(C2CN(CC(=O)NCCc3ccsc3)CCO2)n1` (centres undefined): -3.93%.

Consider `c1csc(-c2nc(CN3CCCC3Cn3cncn3)co2)c1` (centres undefined), for which the cytotoxicity at 70.5 h is -10.5%. As for `Cc1nc(CN2CCc3cncnc3C2)oc1C`, the figure is -5.69%; as for `Cc1ccn(-c2ccccc2NCc2ccccn2)n1`, -8%; as for `Cc1ccc(F)c(C(=O)N2CCN(S(C)(=O)=O)[C@@H](C)C2)c1`, -3.67%. Turning to `Cc1cc(F)cc(S(=O)(=O)NCCCN2CCC(O)CC2)c1`, the cytotoxicity at 70.5 h amounted to 11.3%. As for `Cc1cc(F)c(S(=O)(=O)NCCCN2CCC(O)CC2)cc1F`, the figure is 7.32%.

`O=C(C(CNCc1ccncc1)c1ccccc1)N1CCOCC1` (centres undefined): the cytotoxicity at 70.5 h is -5.58%. The same measure for `NC(=O)C1CCN(Cn2nc(-c3ccc(F)cc3)oc2=O)CC1`: 5.9%; for `Cc1cc(CN(C)C(=O)C2CCCN(C(=O)c3ccc(Cl)cc3)C2)no1` (centres undefined): -10.8%.

Consider `Cc1ccc(-n2nnc(CC(=O)N3CCSCC3)c2C)cc1`, for which the cytotoxicity at 70.5 h is -12.8%.

`CCOc1cc(CN(C)CCOC)ccc1OC(F)F`: the cytotoxicity at 70.5 h stood at 12.4%. As for `Cc1oc(-c2ccsc2)nc1CC(=O)NCCS(C)(=O)=O`, the figure is -12.9%. With `C[C@@H]1C[C@@H]2CCN(Cc3ccccn3)C[C@H]2O1`, the cytotoxicity at 70.5 h was -5.42%.

In the case of `Cc1cccc(CN2CC[C@H]3C[C@H](C)O[C@@H]3C2)n1`, the cytotoxicity at 70.5 h was -4.58%. For the compound `O=C(CO)N1C[C@H]2CN(Cc3cccc(F)c3)C(=O)[C@H]2C1`, the cytotoxicity at 70.5 h was -5.34%. As for `Cc1nccc([C@@H]2C[C@@H]3CCN(Cc4c(C)noc4C)C[C@H]3O2)n1`, the figure is -10.7%. Regarding `O=C(C1CCOC1)N1CCC2(CCN(Cc3nccs3)C2)CC1` (centres undefined), the cytotoxicity at 70.5 h was -10.1%. As for `Cc1cnc(C(=O)N2C[C@H]3CN(Cc4cccc(F)c4)C(=O)[C@H]3C2)cn1`, the figure is 10.5%. Turning to `CN1C(=O)CC(c2cnn(C)c2)C12CCN(C(=O)c1cscn1)CC2` (centres undefined), the cytotoxicity at 70.5 h was -2.36%. For `Cc1oncc1C(=O)N1CCC2(CC1)C(c1cnn(C)c1)CC(=O)N2C` (centres undefined), the cytotoxicity at 70.5 h is -9.68%. `Cc1cnc(C(=O)N2C[C@@H](NS(C)(=O)=O)[C@@H]3OCCC[C@@H]32)cn1`: the cytotoxicity at 70.5 h is -13.4%. As for `CCn1ncc2c1CN(C(=O)c1cscn1)CC2COC` (centres undefined), the cytotoxicity at 70.5 h was -7.98%. As for `CN(C)C(=O)CN1C[C@H]2CN(Cc3cccc(F)c3)C(=O)[C@H]2C1`, the figure is -5.27%; as for `O=C(c1cccnc1)N1C[C@H]2CN(Cc3cccc(F)c3)C(=O)[C@H]2C1`, -3.89%; as for `Cc1ccc(CN2CCC3(CCN(c4cnn(C)c4)C3=O)C2)s1` (centres undefined), 13.4%. The same measure for `COc1ccc(CN2C[C@@H]3OCCN(C)[C@@H]3C2)cc1`: -4.77%. The same measure for `Cn1cc(N2CCC3(CCCN(Cc4ccc(F)cc4)C3)C2=O)cn1` (centres undefined): -12.2%; for `O=C(c1ccccn1)N1C[C@H]2CCC[C@@]2(COCC2CCOCC2)C1`: -10.8%; for `COc1cc(N2CC[C@@H](O)[C@@H]2Cc2cccnc2)ncn1`: -8.63%.

Consider `O=C1[C@H]2CN(Cc3ccc(F)cc3)C[C@H]2CN1c1ccsc1`, for which the cytotoxicity at 70.5 h was -13.2%. Consider `O=C(c1ccno1)N1CC[C@@H]2O[C@H](COCCN3CCCC3)CC[C@@H]21`, for which the cytotoxicity at 70.5 h amounted to 9.33%.

For `Cc1ccc(N2CCO[C@H]3CN(Cc4ccc(F)cc4)C[C@H]32)nn1`, the cytotoxicity at 70.5 h was -7.45%. As to `Fc1ccc(CN2C[C@@H]3OCCN(CC4CCCO4)[C@@H]3C2)cc1` (some centres undefined), the cytotoxicity at 70.5 h came out at 11%. The same measure for `c1cc(COC[C@]23COC[C@H]2CN(Cc2ccsc2)C3)ccn1`: 7.32%; for `COc1cccc(CN2C[C@@H]3COC[C@]3(COCc3ccccn3)C2)c1`: 2.25%; for `c1cc(CN2C[C@@H]3OCCN(CC4CCCO4)[C@@H]3C2)ccn1` (some centres undefined): 8.75%.
